Measurements published in EP0529636B1, “Novel isatinoxime derivatives, their preparation and use” (NEUROSEARCH A/S, priority 1991, dated 1993).
pIC50: −log10 of the molar value.

Tests used:
[1] = target: AMPA ((RS)-α-amino-3-hydroxy-5-methyl-4-isoxazolepropionic acid) binding site; experiment: AMPA binding assay (T. Honoré et al., Neuroscience Letters 54, 27-32 (1985))
Experimental: In the same assay 1,2,3,6,7,8-hexahydro-3-(hydroxyimino)-N,N,7-trimethyl-2-oxobenzo[2,1-b:3,4-c']dipyrrole-5-sulfonamide has an IC50 of 0.3 µM.

[2] = test system: AMPA-induced clonic seizures; experiment: AMPA-induced clonic seizures (AMPA seizure test); type: in vivo, female NMRI mice; conditions: Mus musculus, iv; test compound i.v. 5 min before 0.3 µg icv AMPA; dose inhibiting 50% of the mice from having clonic seizures
Experimental: AMPA given icv (intracerebroventricular) (15 µg/kg) NMRI to mice induces clonic seizures which should be inhibited by non-NMDA receptor excitatory amino acid antagonists.
Test compound was given i.v. 5 min (or p.o. 30 min) before a 0.3 µg icv administration of AMPA to 10 female NMRI mice (weighing 24-26 g) per dose. The number of mice experiencing clonic seizures within the next 5 min was noted. An ED50 value was calculated as the dose inhibiting 50% of the mice from having clonic seizures.

For `CN1Cc2c(S(=O)(=O)N(C)C)cc3c(c2C1)NC(=O)C3=NO` [1,2,3,6,7,8-hexahydro-3-(hydroxyimino)-N,N,7-trimethyl-2-oxobenzo[2,1-b:3,4-c']dipyrrole-5-sulfonamide], the pIC50 [1] was 6.52.
Work on `O=C1CCCc2c3c(cc([N+](=O)[O-])c2N1)C(=NO)C(=O)N3` [5-nitro-1H,6H-2,3,7,8,9,10-hexahydro-2,3,7-trioxo-azepino[2,3-g]indole-3-oxime] yielded a pIC50 [1] of 5.40.
`CN1Cc2ccc3c(c2C1)NC(=O)C3=NO` [7-methyl-1,6,7,8-tetrahydrobenzo[2,1-b:3,4-c']dipyrrole-2,3-dione-3-oxime] showed a pIC50 [1] of 6.00 and an ED50 [2] of 8 mg/kg.
